Experimental data reported in patent publication US7288258B2, “Polyepitopic protein fragments of the E6 and E7 proteins of HPV, their production and their use particularly in vaccination” (Peptide Immune Ligands, priority 1999, dated 2007).

Assays:
Test in all cases: association of peptide with HLA molecules and stability of the complex
Format in all cases: binding, human
Details in all cases: stable complex: peptide remains bound for at least about 3 hours at 37° C.
[1] = test system: HLA molecules of the B62 type
Source text: (§1) The different epitopes of the polyepitopic region of the predetermined protein, and delimiting the epitopic protein fragments, are preferably selected from the peptides; • binding to a predetermined molecule of MCH, particularly to a molecule of the predetermined HLA type, and this from concentrations of about 10^−6 M to about 10^−10 M in peptide for concentrations of about 10^−7 M of HLA molecules, particularly under the conditions described hereafter, • and forming a stable complex with said MCH molecule, namely particularly a complex in which said peptide remains bound to said molecule for at least about 3 hours at 37° C.
(§2) By way of illustration, the above-mentioned epitopes of the invention are selected from among the peptides adapted: • on the one hand of associating with the molecules of MCH, particularly by using the following method: • incubation (particularly for about 2 hours at 25° C., then about 15 hours at 4° C.) of the peptide in the presence of MCH molecules, from the lysis of human or animal cells, or purified particularly by affinity chromatography from human or animal cell lines, • trapping complexes formed during the preceding step on a solid support covered with a first antibody, particularly monoclonal, recognizing specifically the CMH molecules in their configuration dependent on their connection to said peptide, • addition to the preceding solid support of a second marked antibody, particularly by coupling to a radioactive, enzymatic or fluorescent marker, said marked antibody recognizing specifically either the long chains of MCH in their configuration dependent on their connection to the peptide, or the short chain of MCH or the β2-microglobulin binding specifically to the different long chains of the MCH in their above-mentioned configuration, • detection, after rinsing of the solid support, of the possible presence of the second marked antibody remaining fixed on the solid support, signifying an association effect between the molecules of MCH and the peptide studied, • and, on the other hand, forming a complex with said MCH molecules, whose stability can be evaluated by the use of a method of following according to time the connection established between the peptide and the MCH molecules, this method being preferably carried out according to a protocol identical to the preceding method, but in which the incubation step of the peptide in the presence of MCH molecules on the solid support covered with said first antibody, is preceded by a preliminary step of eliminating the free peptide adapted that may be present in the reaction medium, particularly by washing the solid support, said incubation step being carried out (preferably at a temperature of 37° C.) for variable times of 1 hours, 3 hours, 5 hours, 24 hours and 48 hours.
(§3) As mentioned above, the epitopes of the invention should be recognized by the T cells in association with the MCH molecules and associate with these latter, particularly in the framework of the practice of the recognition test described above. This association can be weak (detectable at concentrations of peptide analogs of the order of 10^−4 to 10^−5 M), intermediate (detectable at concentrations of peptide analogs of the order of 10^−6 to 10^−7 M), or strong (detectable at concentrations of peptide analogs of the order of 10^−8 to 10^−9 M). The peptides associated with the MCH molecules in the scope of the present invention are preferably adapted to bond during at least about 3 hours, to said MCH molecules.

[2] = test system: HLA molecules of the B18 type
Source text: as §1, §2, §3

[3] = test system: HLA molecules of the B35 type
Source text: as §1, §2, §3

[4] = test system: HLA molecules of the B51 type
Source text: as §1, §2, §3

[5] = test system: HLA molecules of the B8 type
Source text: as §1, §2, §3

[6] = test system: HLA molecules of the A1 type

Sequence	binding stably to HLA molecules of the B62 type [1]	binding stably to HLA molecules of the B18 type [2]	binding stably to HLA molecules of the A1 type [6]	other results
LQPETTDLY (Human Papillomavirus)	binding stably	–	–	–
RVRAMAIY (listed as Homo sapiens)	binding stably	–	–	–
NLLGRNSF (listed as Homo sapiens)	binding stably	–	–	–
TAKSVTCTY (listed as Homo sapiens)	binding stably	–	–	–
CPEEKQRHL (Human Papillomavirus)	–	binding stably	–	binding stably to HLA molecules of the B35 type [3]: binding stably; binding stably to HLA molecules of the B51 type [4]: binding stably; binding stably to HLA molecules of the B8 type [5]: binding stably
ISEYRHYCY (Human Papillomavirus)	–	binding stably	binding stably	–
QAEPDRAHY (Human Papillomavirus)	–	binding stably	binding stably	–
QPETTDLYCY (Human Papillomavirus)	–	binding stably	binding stably	–
